The values that follow come from US20090203753A1, “7-(2-amino-1-hydroxy-ethyl)-4-hydroxybenzothiazol-2(3H)-one-derivatives as beta2 adrenoreceptor agonists” (AstraZeneca AB, priority 2005, published 2009).

Assay [1] concerns the target T1, β2 receptor (Homo sapiens, UniProt P07550).
T1 construct: endogenous in cells; host or cells: H292 cells
Briefly: Alternative adrenergic β2 mediated cAMP production in H292 cells (60 minutes with test compound). It counts as cell-based. Conditions: for EC50: cAMP, 60 minutes incubation with compound, 300 μM rolipram, read-out: β2 pEC50 (converted); for β2 Int Act: fraction relative to the maximum activity determined for formoterol, 60 minutes incubation. Here is the method: Alternative Adrenergic (β2 Mediated cAMP Production
H292 cells were grown in 225 cm2 flasks incubator at 37° C., 5% CO2 in RPMI medium containing, 10% (v/v) FBS (foetal bovine serum) and 2 mM L-glutamine.
Adherent H292 cells were removed from tissue culture flasks by treatment with Accutase™ cell detachment solution for 15 minutes. Flasks were incubated for 15 minutes in a humidified incubator at 37° C., 5% CO2. Detached cells were re-suspended in RPMI media (containing 10% (v/v) FBS and 2 mM L-glutamine) at 0.05×10^6 cells per mL. 5000 cells in 100 μL were added to each well of a tissue-culture-treated 96-well plate and the cells incubated overnight in a humidified incubator at 37° C., 5% CO2. The culture media was removed and cells were washed twice with 100 μL assay buffer and replaced with 50 μL assay buffer (HBSS solution containing 10 mM HEPES pH7.4 and 5 mM glucose). Cells were rested at room temperature for 20 minutes after which time 25 μL of rolipram (1.2 mM made up in assay buffer containing 2.4% (v/v) dimethylsulphoxide) was added. Cells were incubated with rolipram for 10 minutes after which time test compounds were added and the cells were incubated for 60 minutes at room temperature. The final rolipram concentration in the assay was 300 μM and final vehicle concentration was 1.6% (v/v) dimethylsulphoxide. The reaction was stopped by removing supernatants, washing once with 100 μL assay buffer and replacing with 50 μL lysis buffer. The cell monolayer was frozen at −80° C. for 30 minutes (or overnight).
The concentration of cAMP (cyclic adenosine monophosphate) in the cell lysate was determined using AlphaScreen™ methodology. The frozen cell plate was thawed for 20 minutes on a plate shaker then 10 μL of the cell lysate was transferred to a 96-well white plate. 40 μL of mixed AlphaScreen™ detection beads pre-incubated with biotinylated cAMP, was added to each well and the plate incubated at room temperature for 10 hours in the dark. The AlphaScreen™ signal was measured using an EnVision spectrophotometer (Perkin-Elmer Inc.) with the recommended manufacturer's settings. cAMP concentrations were determined by reference to a calibration curve determined in the same experiment using standard cAMP concentrations. Concentration response curves for agonists were constructed and data was fitted to a four parameter logistic equation to determine both the pEC50 and Intrinsic Activity. […]
For orientation: Changes in cAMP serve as a functional read-out for many G protein-coupled receptors.

Assay [2] has as its target T2, recombinant human adrenergic beta 1 receptors (Homo sapiens, UniProt P08588).
T2 construct: purchased Euroscreen
Briefly: Adrenergic β1 selectivity assay, [125I]-Iodocyanopindolol binding to membranes. Conditions: inhibition of [125I]-Iodocyanopindolol binding (0.036 nM); read-out: β1 bind pIC50 (converted). Here is the method:
Membranes containing recombinant human adrenergic beta 1 receptors were obtained from Euroscreen. These were diluted in Assay Buffer (50 mM HEPES, 1 mM EDTA, 120 mM NaCl, 0.1% gelatin, pH 7.4) to provide a final concentration of membranes that gave a clear window between maximum and minimum specific binding.
(§1) Assays were performed in U-bottomed 96-well polypropylene plates. 10 μL [^125I]-Iodocyanopindolol (0.036 nM final concentration) and 10 μL of test compound (10× final concentration) were added to each test well. For each assay plate 8 replicates were obtained for [^125I]-Iodocyanopindolol binding in the presence of 10 μL vehicle (10% (v/v) DMSO in Assay Buffer; defining maximum binding) or 10 μL Propranolol (10 μM final concentration; defining non-specific binding (NSB)). Membranes were then added to achieve a final volume of 100 μL. The plates were incubated for 2 hours at room temperature and then filtered onto PEI coated GF/B filter plates, pre-soaked for 1 hour in Assay Buffer, using a 96-well plate Tomtec cell harvester. Five washes with 250 μL wash buffer (50 mM HEPES, 1 mM EDTA, 120 mM NaCl, pH 7.4) were performed at 4° C. to remove unbound radioactivity. The plates were dried then sealed from underneath using Packard plate sealers and MicroScint-O (50 μL) was added to each well. The plates were sealed (TopSeal A) and filter-bound radioactivity was measured with a scintillation counter (TopCount, Packard BioScience) using a 3-minute counting protocol.
(§2) Total specific binding (B0) was determined by subtracting the mean NSB from the mean maximum binding. NSB values were also subtracted from values from all other wells.

The target in assay [3] is T3, recombinant human α1D receptor (Homo sapiens, UniProt P25100).
T3 construct: expressed in transfected cells; host or cells: HEK293
T3 sequence (P25100 1-572): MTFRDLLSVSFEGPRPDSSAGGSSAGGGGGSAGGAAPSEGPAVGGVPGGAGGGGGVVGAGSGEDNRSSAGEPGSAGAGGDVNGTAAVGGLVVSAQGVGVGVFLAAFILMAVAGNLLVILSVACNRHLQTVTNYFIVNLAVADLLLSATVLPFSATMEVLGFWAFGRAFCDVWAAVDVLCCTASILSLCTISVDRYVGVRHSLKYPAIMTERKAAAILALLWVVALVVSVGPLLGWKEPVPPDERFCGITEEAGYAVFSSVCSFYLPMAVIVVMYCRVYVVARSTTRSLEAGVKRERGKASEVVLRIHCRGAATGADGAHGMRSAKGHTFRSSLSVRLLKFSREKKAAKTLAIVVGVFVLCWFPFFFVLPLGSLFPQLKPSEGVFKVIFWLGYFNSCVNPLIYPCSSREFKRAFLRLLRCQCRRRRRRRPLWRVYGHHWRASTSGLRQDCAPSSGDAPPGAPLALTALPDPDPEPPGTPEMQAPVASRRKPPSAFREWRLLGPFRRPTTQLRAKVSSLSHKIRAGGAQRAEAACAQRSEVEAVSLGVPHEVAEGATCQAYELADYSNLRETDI
Description: Adrenergic α1D selectivity assay, [3H]-prazosin binding to HEK293 membranes. Conditions: read-out: α1 bind pIC50 (converted). Here is the method: Membranes were prepared from human embryonic kidney 293 (HEK293) cells expressing recombinant human α1D receptor. These were diluted in Assay Buffer (50 mM HEPES, 1 mM EDTA, 0.1% gelatin, pH 7.4) to provide a final concentration of membranes that gave a clear window between maximum and minimum specific binding.
as §1, with “[^3H]-prazosin (0.3” for “[^125I]-Iodocyanopindolol (0.036”, “[^3H]-prazosin” for “[^125I]-Iodocyanopindolol”, “BMY7378” for “Propranolol”, “EDTA,” for “EDTA, 120 mM NaCl,”
as §2

In assay [4] the target is T4, recombinant human Dopamine Subtype D2s receptors (Homo sapiens, UniProt P14416).
T4 construct: purchased Perkin Elmer
T4 sequence (P14416 1-414 isoform P14416-2): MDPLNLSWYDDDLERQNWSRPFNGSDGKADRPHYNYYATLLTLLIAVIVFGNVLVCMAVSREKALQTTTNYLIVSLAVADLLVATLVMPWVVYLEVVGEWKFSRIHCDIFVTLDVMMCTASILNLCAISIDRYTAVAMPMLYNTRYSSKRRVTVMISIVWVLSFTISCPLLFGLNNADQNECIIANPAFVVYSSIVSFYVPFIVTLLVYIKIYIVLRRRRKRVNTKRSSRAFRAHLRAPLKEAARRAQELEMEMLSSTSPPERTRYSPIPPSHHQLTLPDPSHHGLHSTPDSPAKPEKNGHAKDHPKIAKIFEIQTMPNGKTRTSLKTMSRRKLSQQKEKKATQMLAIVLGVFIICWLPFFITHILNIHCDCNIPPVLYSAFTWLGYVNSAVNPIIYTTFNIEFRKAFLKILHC
Briefly: Dopamine D2 selectivity assay, [3H]-spiperone binding to membranes. Conditions: read-out: D2 bind pIC50 (converted). Here is the method:
Membranes containing recombinant human Dopamine Subtype D2s receptors were obtained from Perkin Elmer. These were diluted in Assay Buffer (50 mM HEPES, […], 120 mM NaCl, 0.1% gelatin, pH 7.4) to provide a final concentration of membranes that gave a clear window between maximum and minimum specific binding.
Assays were performed in U-bottomed 96-well polypropylene plates. 30 μL [^3H]-spiperone (0.16 nM final concentration) and 30 μL of test compound (10× final concentration) were added to each test well. For each assay plate 8 replicates were obtained for [^3H]-spiperone binding in the presence of 30 μL vehicle (10% (v/v) DMSO in Assay Buffer; defining maximum binding) or 30 μL Haloperidol (10 μM final concentration; defining non-specific binding (NSB)). Membranes were then added to achieve a final volume of 300 μL. The plates were incubated for 2 hours at room temperature and then filtered onto PEI coated GF/B filter plates, pre-soaked for 1 hour in Assay Buffer, using a 96-well plate Tomtec cell harvester. Five washes with 250 μL wash buffer (50 mM HEPES, 1 mM EDTA, 120 mM NaCl, pH 7.4) were performed at 4° C. to remove unbound radioactivity. The plates were dried then sealed from underneath using Packard plate sealers and MicroScint-O (50 μL) was added to each well. The plates were sealed (TopSeal A) and filter-bound radioactivity was measured with a scintillation counter (TopCount, Packard BioScience) using a 3-minute counting protocol.
as §2

The target of assay [5] is T1, β2 receptor. Briefly: β2 mediated cAMP production in H292 cells, AlphaScreen cAMP detection (10 minutes with test compound). It counts as cell-based. Conditions: for EC50: cAMP, 10 minutes incubation with compound, 300 μM rolipram; for Intrinsic Activity: fraction relative to the maximum activity determined for formoterol, 10 minutes incubation. As to the method: H292 cells were grown in RPMI (Roswell Park Memorial Institute) medium containing, 10% (v/v) FBS (foetal bovine serum) and 2 mM L-glutamine. Cells were grown in 225 cm2 flasks containing 25 mL media in a humidified incubator at 37° C., 5% CO2. Cells were harvested from the flask and passaged at a 1 in 10 dilution once per week.
The media from flasks containing H292 cells was removed, rinsed with 10 mL PBS (phosphate buffered saline) and replaced with 10 mL Accutase™ cell detachment solution. Flasks were incubated for 15 minutes in a humidified incubator at 37° C., 5% CO2. The cell suspension was counted and the cells re-suspended in RPMI media (containing 10% (v/v) FBS and 2 mM L-glutamine) at 0.05×10^6 cells per mL. 5000 cells in 100 μL were added to each well of a tissue-culture-treated 96-well plate and the cells incubated overnight in a humidified incubator at 37° C., 5% CO2. The culture media was removed, washed twice with 100 μL assay buffer and replaced with 50 μL assay buffer. Cells were rested at room temperature for 20 minutes after which time 25 μL of rolipram (1.2 mM made up in assay buffer containing 2.4% (v/v) dimethylsulphoxide) was added. Cells were incubated with rolipram for 10 minutes after which time test compounds (made up as ×4 concentrated stocks in assay buffer containing 4% (v/v) dimethylsulphoxide) were added and the cells were incubated for 10 minutes at room temperature. Final rolipram concentration in the assay was 300 μM and final vehicle concentration was 1.6% (v/v) dimethylsulphoxide. The reaction was stopped by removing supernatants, washing once with 100 μL assay buffer and replacing with 50 μL lysis buffer. The cell monolayer was frozen at −80° C. for 30 minutes (or overnight).
The concentration of cAMP (cyclic adenosine monophosphate) in the cell lysate was determined using the AlphaScreen™ methodology. The frozen cell plate was thawed for 20 minutes on a plate shaker then 10 μL of the cell lysate was transferred to a 96-well white plate. 40 μL of mixed AlphaScreen™ detection beads (containing equal volumes of donor beads (pre-incubated with biotinylated cAMP in the dark for 30 minutes) and acceptor beads), was added to each well and the plate incubated at room temperature for 10 hours in the dark. The AlphaScreen™ signal was measured using an EnVision spectrophotometer (Perkin-Elmer Inc.) with the recommended manufacturer's settings. cAMP concentrations were determined by reference to a calibration curve determined in the same experiment using standard cAMP concentrations (made up in lysis buffer in a 96-well tissue-culture-treated plate and frozen/thawed alongside the test samples) and detected using the same protocol. Concentration response curves for agonists were constructed to determine both the pEC50 and Intrinsic Activity.

Counter-ions that a name gives are not always drawn.

T1 sequence (P07550 whole entry): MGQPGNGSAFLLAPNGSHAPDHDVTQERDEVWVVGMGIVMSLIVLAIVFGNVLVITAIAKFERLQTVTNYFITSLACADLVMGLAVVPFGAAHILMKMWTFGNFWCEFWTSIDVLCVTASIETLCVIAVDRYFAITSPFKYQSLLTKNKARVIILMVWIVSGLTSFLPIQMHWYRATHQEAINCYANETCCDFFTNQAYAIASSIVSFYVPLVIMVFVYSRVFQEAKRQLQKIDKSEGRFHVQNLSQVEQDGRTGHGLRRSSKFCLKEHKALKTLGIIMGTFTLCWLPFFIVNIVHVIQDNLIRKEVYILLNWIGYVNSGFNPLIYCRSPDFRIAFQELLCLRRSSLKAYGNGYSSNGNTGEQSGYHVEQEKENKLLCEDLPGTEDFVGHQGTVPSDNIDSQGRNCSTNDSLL
T2 sequence (P08588 whole entry): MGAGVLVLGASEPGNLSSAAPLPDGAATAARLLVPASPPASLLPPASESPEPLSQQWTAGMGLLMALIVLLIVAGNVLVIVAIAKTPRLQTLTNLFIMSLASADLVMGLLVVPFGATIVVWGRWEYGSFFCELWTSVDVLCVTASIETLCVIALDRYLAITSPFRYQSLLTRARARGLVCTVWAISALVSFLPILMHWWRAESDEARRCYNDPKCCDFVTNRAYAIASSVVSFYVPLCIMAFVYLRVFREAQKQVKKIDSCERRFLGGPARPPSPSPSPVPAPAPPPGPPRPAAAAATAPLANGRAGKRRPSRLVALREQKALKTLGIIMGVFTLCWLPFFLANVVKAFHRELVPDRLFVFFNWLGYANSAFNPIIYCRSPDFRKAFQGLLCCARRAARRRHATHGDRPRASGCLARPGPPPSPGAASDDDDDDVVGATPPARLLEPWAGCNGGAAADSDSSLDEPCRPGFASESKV

As for `CCN(CC)CCN(CCNC[C@H](O)c1ccc(O)c2[nH]c(=O)sc12)C(=O)CCOCCc1cccc(Cl)c1` [Example 9, 3-[2-(3-Chlorophenyl)ethoxy]-N-[2-(diethylamino)ethyl]-N-(2-{[(2R)-2-hydroxy-2-(4-hydroxy-2-oxo-2,3-dihydro-1,3-benzothiazol-7-yl)ethyl]amino}ethyl)propanamide], the EC50 on β2 receptor [1] was 3.98 nM. In addition, the “β2 Int Act” value on β2 receptor [1] is on record as 0.9. The IC50 was 1580 nM in assay [2], 2000 nM in assay [3] and more than 10000 nM in assay [4].

As for `CCCCN(CCNC[C@H](O)c1ccc(OCc2ccccc2)c2[nH]c(=O)sc12)C(=O)CCOCCc1ccccc1` [Example 1, N-[2-[2-(4-Benzyloxy-2-oxo-3H-benzothiazol-7-yl)-(2R)-2-hydroxy-ethyl]aminoethyl]-N-butyl-3-phenethyloxy-propanamide], at β2 receptor [5], the EC50 is 20 nM and the “Intrinsic Activity” value was determined as 0.7.

On to `CN(CCNC[C@H](O)c1ccc(O)c2[nH]c(=O)sc12)C(=O)CCOCCc1ccccc1` [Example 5, N-(2-{[(2R)-2-Hydroxy-2-(4-hydroxy-2-oxo-2,3-dihydro-1,3-benzothiazol-7-yl)ethyl]amino}ethyl)-N-methyl-3-(2-phenylethoxy)propanamide Trifluoroacetate], for which, on β2 receptor [1], the EC50 was 0.2 nM and the “β2 Int Act” value is recorded as 1. Moreover, the IC50 in assay [2] was 12.6 nM. Besides, on β2 receptor [5], the EC50 is 0.316 nM and the “Intrinsic Activity” value amounted to 1.0.

With `O=C(CCOCCc1ccccc1)N(CCNC[C@H](O)c1ccc(O)c2[nH]c(=O)sc12)CCc1ccccc1` [Example 4, N-(2-{[(2R)-2-Hydroxy-2-(4-hydroxy-2-oxo-2,3-dihydro-1,3-benzothiazol-7-yl)ethyl]amino}ethyl)-3-(2-phenylethoxy)-N-(2-phenylethyl)propanamide], at β2 receptor [1], the EC50 was 1.26 nM and the “β2 Int Act” value came to 0.9. Further, in assay [2], the IC50 is 3.16 nM. Moreover, on β2 receptor [5], the EC50 is 1.26 nM and the “Intrinsic Activity” value came out at 1.1.
